The text below walks through data of patent US10053431B2, “Tetrahydro-benzodiazepinones” (priority 2013, dated 2018).

The term IC50 denotes the concentration that gives 50% inhibition.

In test [1] the target is BIR2 domain of XIAP (Homo sapiens (Human), UniProt P98170, C202A/C213G). The test can be described thus: TR-FRET assay for BIR2 (inhibition of binding of XIAP BIR2 domain to SMAC-derived Peptide A). A general note: Time-resolved FRET reads energy transfer from a long-lived donor to a nearby acceptor.
Sequence of BIR2 domain of XIAP (P98170 124-240 with tags or gaps C202A/C213G limits assumed): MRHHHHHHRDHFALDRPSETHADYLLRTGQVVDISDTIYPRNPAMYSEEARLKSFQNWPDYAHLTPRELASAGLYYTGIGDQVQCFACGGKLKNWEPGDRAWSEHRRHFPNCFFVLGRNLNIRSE
Test [2] deals with BIR3 domain of XIAP (Homo sapiens (Human), UniProt P98170). The test can be described thus: TR-FRET assay for BIR3 (inhibition of binding of XIAP BIR3 domain to SMAC-derived Peptide A). Conditions: 6x His-tagged BIR3 domain (aa 241-356 of XIAP) 10 nM, Peptide A 20 nM, TR-FRET.
Sequence of BIR3 domain of XIAP (P98170 241-356 with tags or gaps limits assumed): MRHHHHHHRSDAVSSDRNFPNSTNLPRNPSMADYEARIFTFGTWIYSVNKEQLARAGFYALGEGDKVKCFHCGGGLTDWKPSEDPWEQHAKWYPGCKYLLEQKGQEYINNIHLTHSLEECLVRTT
Setting [3] is: 6x His-tagged BIR2 domain (aa 124-240 of XIAP) 10 nM, Peptide A 20 nM, TR-FRET, read-out: IC50 BIR2.

Counter-ions that a name gives are not always drawn. Like-named read-outs stand apart in the source and are kept apart here. Some results are limits rather than exact numbers.

As to `CN[C@@H](C)C(=O)N[C@H]1CN(C(=O)c2ccc(C#N)cc2)c2cc(Cl)ccc2N(Cc2c(OCC(F)(F)F)ccc3cc(Br)ccc23)C1=O` [Example 135, (S)-N-((S)-1-((6-bromo-2-(2,2,2-trifluoroethoxy)naphthalen-1-yl)methyl)-7-chloro-5-(4-cyanobenzoyl)-2-oxo-2,3,4,5-tetrahydro-1H-benzo[b][1,4]diazepin-3-yl)-2-(methylamino)propanamide hydrochloride], the IC50 in test [1] (setting [3]) was 32 nM; in test [2], 36200 nM.

As to `CC[C@H](N)C(=O)NC1C(=O)N(Cc2c(OC)ccc3c(Br)cccc23)c2ccccc2N(c2ccccc2)C1=O` (stereo partly drawn) [Example 137, (2S)-2-amino-N-(1-((5-bromo-2-methoxynaphthalen-1-yl)methyl)-2,4-dioxo-5-phenyl-2,3,4,5-tetrahydro-1H-benzo[b][1,4]diazepin-3-yl)butanamide], the IC50 in test [1] (IC50 BIR2) was 29.8 nM; in test [2] it was above 54800 nM.

For the compound `CC[C@H](NCCO)C(=O)NC1C(=O)N(Cc2c(OC)ccc3c(Br)cccc23)c2ccccc2N(c2ccccc2)C1=O` (stereo partly drawn) [Example 138, (2S)-N-(1-((5-bromo-2-methoxynaphthalen-1-yl)methyl)-2,4-dioxo-5-phenyl-2,3,4,5-tetrahydro-1H-benzo[b][1,4]diazepin-3-yl)-2-(2-hydroxyethylamino)butanamide], the half-inhibitory concentration (IC50) in test [1] (setting [3]) was 69.4 nM; in test [2] it was above 54800 nM.

For `CN[C@@H](C)C(=O)N[C@H]1CN(C(=O)c2ccc(C#N)cc2)c2cc(Cl)ccc2N(Cc2c(OC(F)F)ccc3ccccc23)C1=O` [Example 139, (S)-N-((S)-7-chloro-5-(4-cyanobenzoyl)-1-((2-(difluoromethoxy)naphthalen-1-yl)methyl)-2-oxo-2,3,4,5-tetrahydro-1H-benzo[b][1,4]diazepin-3-yl)-2-(methylamino)propanamide hydrochloride], the 50% inhibitory concentration (IC50) was 34.7 nM in test [1] (setting [3]) and 36900 nM in test [2].

As for `CN[C@@H](C)C(=O)N[C@H]1CN(C(=O)c2ccc(C#N)cc2)c2cc(C#N)ccc2N(Cc2c(OC)ccc3c(Br)cccc23)C1=O` [Example 143, (S)-N-((S)-1-((5-bromo-2-methoxynaphthalen-1-yl)methyl)-7-cyano-5-(4-cyanobenzoyl)-2-oxo-2,3,4,5-tetrahydro-1H-benzo[b][1,4]diazepin-3-yl)-2-(methylamino)propanamide hydrochloride], the results for the IC50 in test [1] (setting [3]) and in test [2] were 5.11 nM and 16300 nM, respectively.

`CCN[C@@H](C)C(=O)N[C@H]1CN(C(=O)CS(C)(=O)=O)c2ccccc2N(Cc2c(OC)ccc3cc(Br)ccc23)C1=O` [Example 149, (S)-N-((S)-1-((6-bromo-2-methoxynaphthalen-1-yl)methyl)-5-(2-(methylsulfonyl)acetyl)-2-oxo-2,3,4,5-tetrahydro-1H-benzo[b][1,4]diazepin-3-yl)-2-(ethylamino)propanamide]: the IC50 was 183 nM in test [1] (setting [3]) and above 54800 nM in test [2].

`CN[C@@H](C)C(=O)N[C@H]1CN(C(=O)c2ccc(F)cc2)c2cc(C#N)ccc2N(Cc2c(OC(F)F)ccc3ccccc23)C1=O` [Example 151, (S)-N-((S)-7-cyano-1-((2-(difluoromethoxy)naphthalen-1-yl)methyl)-5-(4-fluorobenzoyl)-2-oxo-2,3,4,5-tetrahydro-1H-benzo[b][1,4]diazepin-3-yl)-2-(methylamino)propanamide hydrochloride]: the half-maximal inhibitory concentration (IC50) was found to be 28.4 nM in test [1] (setting [3]) and 49000 nM in test [2].

`CCN[C@@H](CC)C(=O)N[C@H]1CN(C(=O)CS(C)(=O)=O)c2ccccc2N(Cc2c(OC)ccc3c(Br)cccc23)C1=O` [Example 155, (S)-N-((S)-1-((5-bromo-2-methoxynaphthalen-1-yl)methyl)-5-(2-(methylsulfonyl)acetyl)-2-oxo-2,3,4,5-tetrahydro-1H-benzo[b][1,4]diazepin-3-yl)-2-(ethylamino)butanamide hydrochloride]: the concentration for half-maximal inhibition (IC50) in test [1] (setting [3]) was 18.6 nM; in test [2], above 54800 nM.

For the compound `CN[C@@H](C)C(=O)N[C@H]1CN(C(=O)c2ccc3cn[nH]c3c2)c2ccccc2N(Cc2c(C)ccc3ccccc23)C1=O` [Example 158, (2S)-N-[(3S)-1-(1H-indazole-6-carbonyl)-5-[(2-methylnaphthalen-1-yl)methyl]-4-oxo-2,3-dihydro-1,5-benzodiazepin-3-yl]-2-(methylamino)propanamide], the values for the IC50 in test [1] (setting [3]) and in test [2] were 18.2 nM and above 54800 nM, respectively.

Regarding `CN[C@@H](C)C(=O)N[C@H]1CN(C(=O)CS(C)(=O)=O)c2cc(C#N)ccc2N(Cc2c(OC)ccc3c(Br)cccc23)C1=O` [Example 160, (S)-N-((S)-1-((5-bromo-2-methoxynaphthalen-1-yl)methyl)-7-cyano-5-(2-(methylsulfonyl)acetyl)-2-oxo-2,3,4,5-tetrahydro-1H-benzo[b][1,4]diazepin-3-yl)-2-(methylamino)propanamide hydrochloride], the IC50 in test [1] (setting [3]) is 16.1 nM; in test [2], above 54800 nM.

`CN[C@@H](C)C(=O)N[C@H]1CN(C(=O)CS(C)(=O)=O)c2cc(C#N)ccc2N(Cc2nn(-c3ccccc3C#N)c3ccccc23)C1=O` [Example 161, (2S)-N-[(3S)-7-cyano-1-[[1-(2-cyanophenyl)indazol-3-yl]methyl]-5-(2-methylsulfonylacetyl)-2-oxo-3,4-dihydro-1,5-benzodiazepin-3-yl]-2-(methylamino)propanamide;2,2,2-trifluoroacetic acid]: the IC50 in test [1] (setting [3]) was 53.9 nM; in test [2] it was above 54800 nM.

On to `CN[C@@H](C)C(=O)N[C@H]1CN(C(=O)c2ccc(C(C)=O)cc2)c2cc(C#N)ccc2N(Cc2nn(-c3ccccc3C#N)c3ccccc23)C1=O` [Example 162, (S)-N-((S)-5-(4-acetylbenzoyl)-7-cyano-1-((1-(2-cyanophenyl)-1H-indazol-3-yl)methyl)-2-oxo-2,3,4,5-tetrahydro-1H-benzo[b][1,4]diazepin-3-yl)-2-(methylamino)propanamide hydrochloride], for which the half-inhibitory concentration (IC50) in test [1] (setting [3]) is 18.3 nM; in test [2], above 54800 nM.

Turning to `CN[C@@H](C)C(=O)N[C@H]1CN(C(=O)CS(C)(=O)=O)c2cc(C#N)ccc2N(Cc2c(OC)ccc3ccccc23)C1=O` [Example 166, (S)-N-((S)-7-cyano-1-((2-methoxynaphthalen-1-yl)methyl)-5-(2-(methylsulfonyl)acetyl)-2-oxo-2,3,4,5-tetrahydro-1H-benzo[b][1,4]diazepin-3-yl)-2-(methylamino)propanamide hydrochloride], the figures for the IC50 in test [1] (setting [3]) and in test [2] were 20 nM and 43600 nM, respectively.

On to `CN[C@@H](C)C(=O)N[C@H]1CNc2cc(C#N)ccc2N(Cc2nn(-c3ccccc3C#N)c3ccccc23)C1=O` [Example 168, (S)-N-((S)-7-cyano-1-((1-(2-cyanophenyl)-1H-indazol-3-yl)methyl)-2-oxo-2,3,4,5-tetrahydro-1H-benzo[b][1,4]diazepin-3-yl)-2-(methylamino)propanamide dihydrochloride], for which the IC50 in test [1] (setting [3]) is 95.7 nM; in test [2] it was above 54800 nM.

Take `CN[C@@H](C)C(=O)N[C@H]1CN(C(C)=O)c2cc(C#N)ccc2N(Cc2nn(-c3ccccc3C#N)c3ccccc23)C1=O` [Example 169, (S)-N-((S)-5-acetyl-7-cyano-1-((1-(2-cyanophenyl)-1H-indazol-3-yl)methyl)-2-oxo-2,3,4,5-tetrahydro-1H-benzo[b][1,4]diazepin-3-yl)-2-(methylamino)propanamide hydrochloride]: the IC50 in test [1] (setting [3]) was 33.2 nM; in test [2], above 54800 nM.

Regarding `CN[C@@H](C)C(=O)N[C@H]1CN(C(=O)C2CCOCC2)c2cc(C#N)ccc2N(Cc2nn(-c3ccccc3C#N)c3ccccc23)C1=O` [Example 170, (S)-N-((S)-7-cyano-1-((1-(2-cyanophenyl)-1H-indazol-3-yl)methyl)-2-oxo-5-(tetrahydro-2H-pyran-4-carbonyl)-2,3,4,5-tetrahydro-1H-benzo[b][1,4]diazepin-3-yl)-2-(methylamino)propanamide hydrochloride], the IC50 is 25.5 nM in test [1] (setting [3]) and above 54800 nM in test [2].

As to `CN[C@@H](C)C(=O)N[C@H]1CN(C(=O)CS(C)(=O)=O)c2ccc(C#N)cc2N(Cc2c(OC)ccc3ccccc23)C1=O` [Example 171, (S)-N-((S)-8-cyano-1-((2-methoxynaphthalen-1-yl)methyl)-5-(2-(methylsulfonyl)acetyl)-2-oxo-2,3,4,5-tetrahydro-1H-benzo[b][1,4]diazepin-3-yl)-2-(methylamino)propanamide hydrochloride], the half-inhibitory concentration (IC50) in test [1] (setting [3]) was 30.3 nM; in test [2], 41200 nM.

For the compound `CN[C@@H](C)C(=O)N[C@H]1CN(C(=O)CS(C)(=O)=O)c2ccc(C#N)cc2N(Cc2c(C)ccc3ccccc23)C1=O` [Example 172, (S)-N-((S)-8-cyano-1-((2-methylnaphthalen-1-yl)methyl)-5-(2-(methylsulfonyl)acetyl)-2-oxo-2,3,4,5-tetrahydro-1H-benzo[b][1,4]diazepin-3-yl)-2-(methylamino)propanamide hydrochloride], the figures for the concentration for half-maximal inhibition (IC50) in test [1] (setting [3]) and in test [2] were 94.7 nM and above 54800 nM, respectively.

Consider `CN[C@@H](C)C(=O)N[C@H]1CN(C(=O)CCOC)c2cc(C#N)ccc2N(Cc2nn(-c3ccccc3C#N)c3ccccc23)C1=O` [Example 173, (S)-N-((S)-7-cyano-1-((1-(2-cyanophenyl)-1H-indazol-3-yl)methyl)-5-(3-methoxypropanoyl)-2-oxo-2,3,4,5-tetrahydro-1H-benzo[b][1,4]diazepin-3-yl)-2-(methylamino)propanamide hydrochloride], for which the IC50 is 37.6 nM in test [1] (setting [3]) and above 54800 nM in test [2].

For `CN[C@@H](C)C(=O)N[C@H]1CN(C(=O)c2ccncc2)c2cc(C#N)ccc2N(Cc2nn(-c3ccccc3C#N)c3ccccc23)C1=O` [Example 174, (S)-N-((S)-7-cyano-1-((1-(2-cyanophenyl)-1H-indazol-3-yl)methyl)-5-isonicotinoyl-2-oxo-2,3,4,5-tetrahydro-1H-benzo[b][1,4]diazepin-3-yl)-2-(methylamino)propanamide dihydrochloride], the 50% inhibitory concentration (IC50) in test [1] (setting [3]) is 22.4 nM; in test [2], above 54800 nM.
